The subject of this test is HEK293T cells carrying the ATF4 luciferase reporter. Nature of the test: ATF4-Luc assay, in vitro model of Vanishing Cell White Matter Disease (VWMD). Type of test: cell-based. Conditions: Homo sapiens, HEK-293T, 1 μg/mL tunicamycin, 7 hours, One Glo luminescence. In outline:
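Reporter cells were stably generated by retroviral transduction and puromycin selection, then seeded at 30,000 cells/well. Next day, cells received 1 μg/mL tunicamycin with 200 nM test compound for 7 h, and luciferase luminescence was read with a one-step reagent. Values reported as EC50.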
A word on the EC50: it is the concentration giving half of the maximal effect. Take `Cc1cc(C(=O)NC23CC(NC(=O)COc4ccc(Cl)c(F)c4)(C2)C3)c(C)n1C1CC1` [Compound 842, N-{3-[2-(4-chloro-3-fluorophenoxy)acetamido]bicyclo[1.1.1]pentan-1-yl}-1-cyclopropyl-2,5-dimethyl-1H-pyrrole-3-carboxamide]: the EC50 is more than 2000 nM.

As for `CSc1nccc(C(=O)NC23CC(NC(=O)COc4ccc(Cl)c(F)c4)(C2)C3)n1` [Compound 838, N-{3-[2-(4-chloro-3-fluorophenoxy)acetamido]bicyclo[1.1.1]pentan-1-yl}-2-(methylsulfanyl)pyrimidine-4-carboxamide], the half-maximal effective concentration (EC50) is 50 to 250 nM. For `Cc1ccc(C(=O)NC23CC(NC(=O)COc4ccc(Cl)c(F)c4)(C2)C3)c(C)n1` [Compound 684, N-{3-[2-(4-chloro-3-fluorophenoxy)acetamido]bicyclo[1.1.1]pentan-1-yl}-2,6-dimethylpyridine-3-carboxamide] the value was 1000 to 2000 nM; for `Cc1cc(C(=O)NC23CCC(NC(=O)COc4ccc(Cl)c(F)c4)(CC2)C(O)C3)on1` (centres unmarked) [Compound 326, N-{4-[2-(4-chloro-3-fluorophenoxy)acetamido]-3-hydroxybicyclo[2.2.2]octan-1-yl}-3-methyl-1,2-oxazole-5-carboxamide], 50 to 250 nM. For `CCc1ccc(C(=O)NC23CC(NC(=O)COc4ccc(Cl)c(F)c4)(C2)C3)nc1` [Compound 145, N-{3-[2-(4-chloro-3-fluorophenoxy)acetamido]bicyclo[1.1.1]pentan-1-yl}-5-ethylpyridine-2-carboxamide], the EC50 is 50 to 250 nM. As for `O=C(COc1ccc(Cl)c(F)c1)NC12CCC(NC(=O)c3csc(C(F)(F)F)n3)(CC1)CC2O` (centres unmarked) [Compound 466, N-{4-[2-(4-chloro-3-fluorophenoxy)acetamido]-3-hydroxybicyclo[2.2.2]octan-1-yl}-2-(trifluoromethyl)-1,3-thiazole-4-carboxamide], the figure is less than 50 nM.

On to `Cn1ncc(C(=O)NC23CC(NC(=O)COc4ccc(Cl)c(F)c4)(C2)C3)c1C(F)(F)F` [Compound 874, N-{3-[2-(4-chloro-3-fluorophenoxy)acetamido]bicyclo[1.1.1]pentan-1-yl}-1-methyl-5-(trifluoromethyl)-1H-pyrazole-4-carboxamide], for which the 50% effective concentration (EC50) is more than 2000 nM. Turning to `O=C(COc1ccc(Cl)c(F)c1)NC12CCC(NC(=O)c3cncs3)(CC1)C(O)C2` (centres unmarked) [Compound 213, N-{4-[2-(4-chloro-3-fluorophenoxy)acetamido]-2-hydroxybicyclo[2.2.2]octan-1-yl}-1,3-thiazole-5-carboxamide], the EC50 was 250 to 1000 nM. On to `Cc1ncc(C(=O)NC23CC(NC(=O)COc4ccc(Cl)c(F)c4)(C2)C3)o1` [Compound 257, N-{3-[2-(4-chloro-3-fluorophenoxy)acetamido]bicyclo[1.1.1]pentan-1-yl}-2-methyl-1,3-oxazole-5-carboxamide], for which the half-maximal effective concentration (EC50) fell in the range of 50 to 250 nM. `Cc1cc(C(=O)NC23CC(NC(=O)COc4ccc(Cl)c(F)c4)(C2)C3)n(C(F)F)n1` [Compound 913, N-{3-[2-(4-chloro-3-fluorophenoxy)acetamido]bicyclo[1.1.1]pentan-1-yl}-1-(difluoromethyl)-3-methyl-1H-pyrazole-5-carboxamide]: the 50% effective concentration (EC50) is 250 to 1000 nM. For `O=C(COc1ccc(Cl)c(F)c1)NC12CCC(NC(=O)c3csc(C4CC4)n3)(CC1)CC2O` (centres unmarked) [Compound 522, N-{4-[2-(4-chloro-3-fluorophenoxy)acetamido]-3-hydroxybicyclo[2.2.2]octan-1-yl}-2-cyclopropyl-1,3-thiazole-4-carboxamide] the value was 50 to 250 nM; for `O=C(COc1ccc(Cl)c(F)c1)NC12CC(NC(=O)c3ccccc3)(C1)C2` [Compound 198, N-{3-[2-(4-chloro-3-fluorophenoxy)acetamido]bicyclo[1.1.1]pentan-1-yl}benzamide], 50 to 250 nM.

Take `Cc1csc(C(=O)NC23CC(NC(=O)COc4ccc(Cl)c(F)c4)(C2)C3)n1` [Compound 450, N-{3-[2-(4-chloro-3-fluorophenoxy)acetamido]bicyclo[1.1.1]pentan-1-yl}-4-methyl-1,3-thiazole-2-carboxamide]: the EC50 is 50 to 250 nM. For `O=C(COc1ccc(Cl)c(F)c1)NC12CC(NC(=O)c3csc(-c4ccccc4)n3)(C1)C2` [Compound 339, N-{3-[2-(4-chloro-3-fluorophenoxy)acetamido]bicyclo[1.1.1]pentan-1-yl}-2-phenyl-1,3-thiazole-4-carboxamide], the half-maximal effective concentration (EC50) was less than 50 nM. For `CCc1cc(C(=O)NC23CC(NC(=O)COc4ccc(Cl)c(F)c4)(C2)C3)n(C)n1` [Compound 254, N-{3-[2-(4-chloro-3-fluorophenoxy)acetamido]bicyclo[1.1.1]pentan-1-yl}-3-ethyl-1-methyl-1H-pyrazole-5-carboxamide] the value was less than 50 nM; for `O=C(COc1ccc(Cl)c(F)c1)NC12CC(NC(=O)c3ccc(-n4cncn4)cc3)(C1)C2` [Compound 783, N-{3-[2-(4-chloro-3-fluorophenoxy)acetamido]bicyclo[1.1.1]pentan-1-yl}-4-(1H-1,2,4-triazol-1-yl)benzamide], more than 2000 nM. For `CC(=O)Nc1cncc(C(=O)NC23CC(NC(=O)COc4ccc(Cl)c(F)c4)(C2)C3)c1` [Compound 822, 5-acetamido-N-{3-[2-(4-chloro-3-fluorophenoxy)acetamido]bicyclo[1.1.1]pentan-1-yl}pyridine-3-carboxamide] the value was more than 2000 nM; for `O=C(COc1ccc(Cl)c(Cl)c1)NC12CC(NC(=O)c3cnoc3)(C1)C2` [Compound 921, N-{3-[2-(3,4-dichlorophenoxy)acetamido]bicyclo[1.1.1]pentan-1-yl}-1,2-oxazole-4-carboxamide], 1000 to 2000 nM. As for `Cc1cc(C(=O)NC23CCC(NC(=O)COc4ccc(Cl)c(F)c4)(CC2)[C@H](O)C3)n(C)n1` (single isomer, unassigned) [Compound 486], the figure is 50 to 250 nM. Turning to `Cc1cncc(C(=O)NC23CCC(NC(=O)COc4ccc(Cl)c(F)c4)(CC2)C[C@@H]3O)n1` [Compound 734, N-{(2S)-4-[2-(4-chloro-3-fluorophenoxy)acetamido]-2-hydroxybicyclo[2.2.2]octan-1-yl}-6-methylpyrazine-2-carboxamide], the concentration giving a half-maximal response (EC50) was less than 50 nM.

For `O=C(COc1ccc(Cl)c(F)c1)NC12CC(NC(=O)c3ccoc3)(C1)C2` [Compound 305, N-{3-[2-(4-chloro-3-fluorophenoxy)acetamido]bicyclo[1.1.1]pentan-1-yl}furan-3-carboxamide], the concentration for a half-maximal effect (EC50) lay in the range of 250 to 1000 nM. As for `N#Cc1cnc(NC23CC(NC(=O)COc4ccc(Cl)c(F)c4)(C2)C3)cn1` [Compound 720, 2-(4-chloro-3-fluorophenoxy)-N-{3-[(5-cyanopyrazin-2-yl)amino]bicyclo[1.1.1]pentan-1-yl}acetamide], the EC50 is more than 2000 nM. Regarding `O=C(COc1ccc(Cl)cc1)NC12CC(Nc3cc(-c4ccc(Cl)cc4)on3)(C1)C2` [Compound 265, 2-(4-chlorophenoxy)-N-(3-{[5-(4-chlorophenyl)-1,2-oxazol-3-yl]amino}bicyclo[1.1.1]pentan-1-yl)acetamide], the concentration for a half-maximal effect (EC50) was less than 50 nM. As for `O=C(COc1ccc(Cl)c(F)c1)NC12CCC(NC(=O)c3ccc4oc(=O)ccc4c3)(CC1)[C@@H](O)C2` [Compound 407, N-{(2S)-4-[2-(4-chloro-3-fluorophenoxy)acetamido]-2-hydroxybicyclo[2.2.2]octan-1-yl}-2-oxo-2H-1-benzopyran-6-carboxamide], the figure is 1000 to 2000 nM; as for `Cc1cc(C(=O)NC23CCC(NC(=O)COc4ccc(Cl)c(Cl)c4)(C2)C3)nn1-c1ccc(Cl)cc1` [Compound 111, 1-(4-chlorophenyl)-N-{4-[2-(3,4-dichlorophenoxy)acetamido]bicyclo[2.1.1]-hexan-1-yl}5-methyl-1H-pyrazole-3-carboxamide], more than 2000 nM; as for `O=C(COc1ccc(Cl)c(F)c1)NC12CC(Nc3nccc(-c4ccc(Cl)cc4)n3)(C1)C2` [Compound 370, 2-(4-chloro-3-fluorophenoxy)-N-(3-{[4-(4-chlorophenyl)pyrimidin-2-yl]amino}bicyclo[1.1.1]pentan-1-yl)acetamide], less than 50 nM. As for `O=C(COc1ccc(Cl)c(F)c1)NC12CC(NC(=O)c3cnn(-c4ccccn4)c3)(C1)C2` [Compound 802, N-{3-[2-(4-chloro-3-fluorophenoxy)acetamido]bicyclo[1.1.1]pentan-1-yl}-1-(pyridin-2-yl)-1H-pyrazole-4-carboxamide], the figure is more than 2000 nM.

As for `Cc1cc(C(=O)N(C)C23CC(NC(=O)COc4ccc(Cl)c(F)c4)(C2)C3)on1` [Compound 355, N-{3-[2-(4-chloro-3-fluorophenoxy)acetamido]bicyclo[1.1.1]pentan-1-yl}-N,3-dimethyl-1,2-oxazole-5-carboxamide], the concentration giving a half-maximal response (EC50) lay within 1000 to 2000 nM. Regarding `Cc1nn(C)c(C(=O)NC23CC(NC(=O)COc4ccc(Cl)c(F)c4)(C2)C3)c1F` [Compound 499, N-{3-[2-(4-chloro-3-fluorophenoxy)acetamido]bicyclo[1.1.1]pentan-1-yl}-4-fluoro-1,3-dimethyl-1H-pyrazole-5-carboxamide], the EC50 was less than 50 nM. Regarding `O=C(COc1ccc(Cl)c(F)c1)NC12CC(NC(=O)c3cc4ccccc4o3)(C1)C2` [Compound 317, N-{3-[2-(4-chloro-3-fluorophenoxy)acetamido]bicyclo[1.1.1]pentan-1-yl}-1-benzofuran-2-carboxamide], the EC50 is less than 50 nM.

As for `Cc1ccc(C(=O)NC23CC(NC(=O)COc4ccc(Cl)c(F)c4)(C2)C3)o1` [Compound 555, N-{3-[2-(4-chloro-3-fluorophenoxy)acetamido]bicyclo[1.1.1]pentan-1-yl}-5-methylfuran-2-carboxamide], the half-maximal effective concentration (EC50) is 50 to 250 nM. For the molecule `Cc1ccn2cc(C(=O)NC34CC(NC(=O)COc5ccc(Cl)c(F)c5)(C3)C4)nc2c1` [Compound 808, N-{3-[2-(4-chloro-3-fluorophenoxy)acetamido]bicyclo[1.1.1]pentan-1-yl}-7-methylimidazo[1,2-a]pyridine-2-carboxamide], the EC50 is more than 2000 nM.
